According to US20260124188A1, “mGluR receptor antagonists for use in prevention andor treatment of bone marrow lesions (BML) andor osteoporosis, cartilage loss, osteosclerosis and osteitis in a mammal” (Orphelion AB, priority 2022, published 2026):

Test: Dissolution of TT001 in I.V. formulation vehicle
Format: physicochemical
Conditions: 0.1 to 10 mg/ml in 40% w/v HPβCD solution in water for injection; a couple of hours for complete dissolution
Method: FORMULATION METHOD FOR THE PREPARATION OF TT001 FOR I.V. DOSING, 0.1 to 10 mg/ml The formulation method is applicable at concentrations in formulation between 0.1 and 10 mg/mL corresponding to 0.262 and 26.2 μmol/mL • TT001 M.W.: 381.8 g/mol • 10 The dissolution of TT001 is moderate, allow a couple of hours for complete dissolution.
• Preparation of 40% w/v HPβCD solution in water for injection • Excipients Hydroxypropyl-β-cyclodextrin, Kleptose, Roquette (HPβCD) 400 mg (40% w/v) • Water for injection to 1 ml (1.13 g) • is Appearance Clear • Density 1.13 g/cm^3
• Preparation of TT001 I.V. formulations between 0.1 and 10 mg/ml • TT001 parent form 0.1-10 mg • Vehicle (40% w/v HPβCD solution in water for injection) to 1 ml (1.13 g) • Appearance Clear • Density 1.13 g/cm^3 • Comments

dissolution: moderate
Structure (SMILES): C[C@@H](Oc1nnc(-c2ccncc2)n1C)c1cc(-c2cccc(Cl)c2)on1 [TT001, 4-[5-[(1R)-1-[5-(3-Chlorophenyl)-3-isoxazolyl]ethoxy]-4-methyl-4H-1,2,4-triazol-3-yl]pyridine]
